Values quoted from earlier work, collected in US20080044462A1 (Collegium Pharmaceutical, Inc. Delaware, priority 2006, published 2008).

Conditions: background statement, no test described

CC(NC(C)(C)C)C(=O)c1cccc(Cl)c1 (stereo not shown) [free base form of bupropion, 1-(3-chlorophenyl)-2[(1,1,dimethylethyl)amino]-1-propanone]
stability in the presence of oxygen: highly unstable
